Results taken from PMC6120666 (The EMBO Journal, 2018).

Columns and labels:
recombinant RIPK2 kinase = biological target: T1, recombinant RIPK2 kinase (Homo sapiens, UniProt O43353); assay: RIPK2 ADPGlo in vitro kinase assay; assay type: biochemical; conditions: average ± SD of at least three titrations, read-out: IC50, In vitro kinase, RIPK2 ADPGIo
T1 construct: made in house
From the text: The BIR2 domains of XIAP and cIAP1 were cloned into the pGEX‐6P1 vector and were expressed in E. coli (BL21) cells as a fusion protein with N‐terminal 6xHis (XIAP BIR2 only) and GST tags. Protein expression was induced with IPTG, and cells were lysed using BugBuster protein extraction reagent (#70921, Merck Millipore) according to manufacturer's instructions. Proteins were purified with the FPLC protein purification system ÄKTA PrimePlus (GE Healthcare Life Sciences) using HisTrap FF column purification followed by gel filtration (HiLoad 26/600 Superdex 75 pg (GE Healthcare Life Sciences)). Collected fractions were stored at −80°C and used for probing of peptide array membranes. Expression and purification of recombinant RIPK1‐3 was performed as previously described (Canning et al, 2015; Najjar et al, 2015). RIPK1‐3 ADPGlo kinase assays using 20 ng/well protein were performed for 2 h at room temperature also as previously described (Canning et al, 2015; Najjar et al, 2015).

NanoLuc-RIPK2 [1] = biological target: T2, NanoLuc-RIPK2 (Homo sapiens, UniProt O43353); assay: nanoBRET cellular RIPK2 residence time assay in HEKBlue cells; assay type: binding; conditions: t1/2 for probe to engage RIPK2 after washout of inhibitor
T2 construct: host or cells: hNOD2-HEKBlue cells

NOD2/HEKBlue cells = assay: hNOD2-HEKBlue L18-MDP-induced NF-κB reporter assay; assay type: cell-based, human; conditions: Homo sapiens, HEK-Blue; L18-MDP-induced NF-κB reporter; average ± SD of at least three titrations
Experimental: For HEKBlue assay, cells were seeded into clear 96‐well plates at 7.5 × 10^3 cells/well and allowed to attach for 48 h. On the day of the experiment, media was changed to 100 μl of HEKBlue detection media (InvivoGen). Inhibitors were diluted and added in 0.5 μl DMSO 15 min prior to the addition of 1 ng/ml L18‐MDP (InvivoGen). After 8–9 h, absorbance at 620 nm was measured using Victor3V plate reader (Perkin Elmer, Waltham, MA). Values of media‐only wells were subtracted and %inhibition for each compound concentration relative to the DMSO/L18‐MDP‐treated controls was calculated. Inhibition values ± SD were fitted by non‐linear regression using Prism software (GraphPad Software, La Jolla, CA) to calculate IC50 values. For THP1Blue assay, 1 × 10^5 cells were seeded in 200 μl of RPMI media in 96‐well plates and treated with inhibitors in 0.5 μl DMSO for 15 min prior to the addition of 10 μg/ml MDP, 10 ng/ml Pam3CSK4, 10 ng/ml E. coli LPS, or 1 × 10^7 cells/ml heat‐killed L. monocytogenes (InvivoGen) for 24 h. After induction, 20 μl of media was mixed with 180 μl of QUANTI‐Blue reagent (InvivoGen) and incubated at 37°C for 3–4 h, followed by absorbance measurement at 620 nm. IC50 values were calculated as described for HEKBlue assay.
Cayman Chemical Company, Ann Arbor, MI), GSK583 (#HY-100339, MedChem Express, South Brunswick, NJ), WEHI-345 (MedKoo Biosciences, Morrisville, NC), Compound A (CpA, a kind gift from TetraLogic Pharmaceuticals, Malvern, PA). Generation of the CSLP compound series is described in Suebsuwong et al. 2018 (manuscript in preparation). hNOD2-HEKBlue and THP1Blue assays
For HEKBlue assay, cells were seeded into clear 96 well plates at 7.5x10^3 cells/well and allowed to attach for 48 h. On the day of the experiment, media was changed to 100 μl of HEKBlue detection media (InvivoGen). Inhibitors were diluted and added in 0.5 μl DMSO 15 min prior to the addition of 1 ng/ml L18-MDP (InvivoGen). After 8-9 h, absorbance at 620 nm was measured using Victor3V plate reader (Perkin Elmer, Waltham, MA). Values of media-only wells were subtracted and %inhibition for each compound concentration relative to the DMSO/L18-MDP-treated controls were calculated.
Inhibition values + StDev were fitted by non-linear regression using Prism software (GraphPad Software, La Jolla, CA) to calculate IC50 values. For THP1Blue assay, 1x10^5 cells were seeded in 200 μl of RPMI media in 96 well plates and treated with inhibitors in 0.5 μl DMSO 15 min prior to the addition of 10 µg/ml MDP, 10 ng/ml Pam3CSK4, 10 ng/ml E. coli LPS or 1x10^7 cells/ml heat-killed L. monocytogenes (InvivoGen) for 24 h. After induction, 20 μl of media was mixed with 180 μl of QUANTI-Blue reagent (InvivoGen) and incubated at 37 °C for 3-4 h, followed by absorbance measurement at 620 nm. IC50 values were calculated as described for HEKBlue assay. […]

NanoLuc-RIPK2 [2] = biological target: T2, NanoLuc-RIPK2; assay: nanoBRET cellular RIPK2 target engagement assay in HEKBlue cells; conditions: average ± SD of at least three titrations, read-out: IC50, Cellular activity, nanoBRET RIPK2 binding
[3] = tested on: RIPK2 ubiquitination in U2OS/NOD2 and THP-1 cells; assay: Purification of Ub-conjugates (TUBE pulldown), RIPK2 ubiquitination; assay type: cell-based, human; conditions: U2OS/NOD2 or THP-1 cells, L18-MDP 200 ng/ml, 1 h
Experimental: For co‐immunoprecipitation of HA‐XIAP with RIPK2, transfected and treated cells were lysed in TBS buffer containing 0.5% NP‐40, cOmplete and PhosSTOP inhibitors (Roche) and the lysate was cleared by centrifugation. The lysates were incubated with anti‐HA‐agarose overnight, washed 3× with lysis buffer, and analyzed by immunoblotting. For GST pulldown experiments, U2OS/NOD2 cells were lysed in TBS lysis buffer containing 0.5% NP‐40, cOmplete and PhosSTOP inhibitors (Roche). Cleared lysates were pretreated with kinase inhibitors or DMSO and incubated with GST‐XIAP‐BIR2 bound to Glutathione Sepharose at 4°C overnight. Bound material was washed 3× with lysis buffer or PBS, eluted with 15 mM Glutathione in PBS, and analyzed by immunoblotting. […] The bound material was eluted and analyzed as described above. […]
PBS, eluted with 15 mM Glutathione in PBS and analyzed by immunoblotting. […]

U2OS/NOD2 cells = assay: Intracellular flow cytometry of CXCL8 after L18-MDP; assay type: cell-based, human; conditions: U2OS/NOD2 cells, L18-MDP 200 ng/ml, 4 h
Experimental: Purified material and lysates were analyzed by immunoblotting. […] Numbering below schematic refers to amino acid residues in human RIPK2 and indicate domain boundaries. […] Data information: Data in (A, B, D, H) represent the mean ± SEM of 2–4 independent experiments, each performed in duplicate. […] Two‐way ANOVA was used to determine statistical significance. See also Fig EV1.Source data are available online for this figure.
Dark gray represents areas occupied by RIPK2; white areas indicate empty spaces in CSLP binding pocket. […] Dotted black box indicates region shown for models with CSLP37 and CSLP43. • Molecular docking model of RIPK2 kinase domain in complex with CSLP43 (green) based on RIPK2/CSLP18 structure from (D). […] Two‐way ANOVA was used to determine statistical significance. See also Fig EV2.
GST-BIR2-XIAP as indicated. Intensity quantification of SPOTs was performed using ImageJ software
Dual luciferase reporter assay
Intracellular flow cytometry of CXCL8
for cell death) or vehicle for 24h. Viability was determined using the CellTiter-Glo® luminescent cell
together with Transfection Carrier DNA (Promega).
After addition of Nano-Glo

His6‐GST‐XIAP‐BIR2 D214S = biological target: T3, His6‐GST‐XIAP‐BIR2 D214S (UniProt P98170 124-242, D214S); assay: peptide or protein array; SPOT assay: selected RIPK2 peptides and their Ala-/Leu-scan variants spotted in triplicate on cellulose, probed with 6xHis-GST-BIR2 of XIAP (WT or D214S), detected with anti-His-HRP, spots quantified with ImageJ; conditions: both partners purified
T3 construct: not restated for the mutant; also called D214S BIR2 domain; D214S mutant; source: E. coli (BL21), purified (HisTrap FF, gel filtration); not shown: His6, N-terminal, kept; GST, N-terminal, kept

| IC50 (recombinant RIPK2 kinase) [nM] | residence time (NanoLuc-RIPK2 [1]) [min] | IC50 (NanoLuc-RIPK2 [2]) [nM] | binding result (His6‐GST‐XIAP‐BIR2 D214S) | Molecule | IC50 (NOD2/HEKBlue cells) [nM] | RIPK2 ubiquitination after L18-MDP [3] | L18-MDP-induced CXCL8 production (U2OS/NOD2 cells) |
| --- | --- | --- | --- | --- | --- | --- | --- |
| 31.6 ± 8.7 | 66.6 | 578 ± 34.1 | – | CCCS(=O)(=O)Nc1cc(-c2cc(-c3ccc(N4CCNCC4)cc3)cnc2N)ccc1OC [CSLP18] | 476 ± 96.7 | – | – |
| 39.1 ± 1.5 | 106 | 167 ± 19 | – | CCCS(=O)(=O)Nc1cc(F)cc(-c2cc(-c3ccc(N4CCNCC4)cc3)cnc2N)c1 [CSLP38] | 740 ± 60.7 | – | – |
| – | – | – | – | CC(C)(C)S(=O)(=O)c1ccc2nccc(Nc3n[nH]c4ccc(F)cc34)c2c1 [GSK583, 6‐(tert‐Butylsulfonyl)‐N‐(5‐fluoro‐1H‐indazol‐3‐yl)quinolin‐4‐amine, reference compound] | – | antagonized | inhibited |
| – | – | – | binds | ASGTVSSARHADWRV (peptide, UniProt O43353 28-42, looked up, 15-mer of human RIPK2, residues 28-42 (β2 and the β2‐β3 loop of the N‐lobe of the kinase domain); also called A13 peptide) [RIPK2 peptide A13 (residues 28‐42)] | – | – | – |
| – | – | – | binds | ADFGLSKWRMMSLSQ (peptide, UniProt O43353 163-177, looked up, 15-mer of human RIPK2, residues 163-177) [RIPK2 peptide E6 (residues 163–177)] | – | – | – |

| Molecule | IC50 (recombinant RIPK2 kinase) [nM] | residence time (NanoLuc-RIPK2 [1]) [min] | IC50 (NanoLuc-RIPK2 [2]) [nM] | binding result (His6‐GST‐XIAP‐BIR2 D214S) | IC50 (NOD2/HEKBlue cells) [nM] | RIPK2 ubiquitination after L18-MDP [3] | L18-MDP-induced CXCL8 production (U2OS/NOD2 cells) |
| --- | --- | --- | --- | --- | --- | --- | --- |
| CCCS(=O)(=O)Nc1cc(-c2cc(-c3ccc(N4CCNCC4)cc3)cnc2C)cc(F)c1OC [CSLP53] | 1410 | – | > 10000 | – | 2560 | – | – |
